Assay results: PMC12040169 (PLOS Biology, 2025)

assay: in vitro; conditions: human, hela cells, % viability

| Compound | viability at 28.5 h, 10 µM |
| --- | --- |
| O=C(O)CCCCCN1C(=O)/C(=C/c2ccc(O)cc2)SC1=S [CBK262835] | 87.6% |
| Nc1ccc(-c2nc3cc(C(=O)c4ccc5[nH]c(-c6ccc(N)cc6)nc5c4)ccc3[nH]2)cc1 [CBK262848] | 99.7% |
| CN1CCN(CCC(=O)N/N=C/c2ccc(O)cc2O)CC1 [CBK262849] | 94.2% |
| O=C(CSc1ncn[nH]1)N/N=C/c1cn(-c2ccccc2)nc1-c1ccccc1 [CBK262850] | 101% |
| O=C(O)CCCN1C(=O)/C(=C/c2ccc(O)c(O)c2)SC1=S [CBK262852] | 84.9% |
| O=C(NC(C(=O)N/N=C/c1cccc(O)c1)c1n[nH]c(=O)c2ccccc12)c1ccccc1 (stereo not drawn) [CBK262853] | 89% |
| Cc1cc2nc(-c3cc(NC(=O)c4cccc([N+](=O)[O-])c4)ccc3O)oc2cc1C [CBK262855] | 103% |
| COC(=O)c1ccc(N2C(=O)CC(NCCc3ccc(S(N)(=O)=O)cc3)C2=O)cc1 (stereo not drawn) [CBK262859] | 99.9% |
| Cc1ccc(S(=O)(=O)NCC(c2ccccc2)N2CCN(CCC#N)CC2)cc1 (stereo not drawn) [CBK262865] | 97.4% |
| O=C(O)c1ccc(S(=O)(=O)c2ccc3c(c2)C(=O)N(c2ccc(Sc4ccc([N+](=O)[O-])cc4)cc2)C3=O)cc1 [CBK262869] | 104% |
| CC(CCc1ccccc1)NC1CCCc2c1[nH]c1ccc([N+](=O)[O-])cc21 (stereo not drawn) [CBK262875] | 73.2% |
| COc1ccc(CCC(C)NC2CCCc3c2[nH]c2ccc([N+](=O)[O-])cc32)cc1 (stereo not drawn) [CBK262876] | 71.6% |
| CC(NC1CCN(Cc2ccccc2)CC1)C12CC3CC(CC(c4ccc(Cl)cc4)(C3)C1)C2 (stereo not drawn) [CBK262877] | 90.1% |
| CC1C2CCCN2CCN1Cc1cccc(Oc2ccccc2)c1 (stereo not drawn) [CBK262880] | 94.9% |
| Cc1cc(C)nc(SCC(=O)N/N=C2/C(=O)Nc3ccccc32)n1 [CBK262883] | 108% |
| COc1ccc(-c2cc(C(=O)N/N=C/c3c(C)[nH]c4ccccc34)[nH]n2)cc1 [CBK262884] | 55.7% |

| Compound | viability at 28.5 h, 10 µM |
| --- | --- |
| O=C(N/N=C/c1ccccn1)c1cc(-c2ccc3ccccc3c2)[nH]n1 [CBK262886] | 93.9% |
| CCOc1ccc(-c2n[nH]c(C(=O)N/N=C3/C(=O)Nc4ccccc43)c2C)cc1 [CBK262889] | 99.6% |
| CC(NCc1ccncc1)=C1C(=O)c2ccccc2C1=O [CBK262890] | 105% |
| N#C/C(=C/c1c[nH]c2ccccc12)c1n[nH]c(N)c1C#N [CBK262893] | 70.4% |
| N=c1n(CC(=O)O)c2ccccc2n1Cc1ccc(Cl)cc1 [CBK262897B] | 89.5% |
| c1ccc(-c2oc3ncn4nc(COc5cccc6ccccc56)nc4c3c2-c2ccccc2)cc1 [CBK262898] | 99.9% |
| Cc1cc(=O)n2ccc(CN3CCOCC3)c(O)c2n1 [CBK262899C] | 114% |
| Cc1n[nH]c(C)c1CCC(=O)N/N=C/c1ccc(Cl)cc1Cl [CBK262901] | 86.6% |
| CN(C)c1ccc(/C=N/NC(=O)CCn2c3ccccc3c3cc(I)ccc32)cc1 [CBK262902] | 84.5% |
| NC(CC(=O)O)c1cccc([N+](=O)[O-])c1 (stereo not drawn) [CBK262903C] | 96.9% |
| O=C(Cn1c(NCCCO)nc2ccccc21)c1ccc(Cl)c(Cl)c1 [CBK262905B] | 94.1% |
| CCn1c(=N)n(CC(=O)O)c2ccccc21 [CBK262906B] | 94% |
| O=C1/C(=C/NCc2cccnc2)C(c2ccccc2)=NN1c1ccc([N+](=O)[O-])cc1 [CBK262911] | 97.6% |
| CC1(C)OC2C(C(=O)O)OC(n3cnc4c(N)ncnc43)C2O1 (stereo not drawn) [CBK262912] | 96.2% |
| CCN(CC)CCn1c(=N)n(CC(O)c2ccc(C)cc2)c2ccccc21 (stereo not drawn) [CBK262914C] | 104% |
| CCCCOc1ccc(C(N)CC(=O)O)cc1 (stereo not drawn) [CBK262915] | 86.8% |

same assay, conditions: human, hela cells, % viability, bulk resorufin, single well

| Compound | viability at 28.5 h, 10 µM |
| --- | --- |
| CN1C(=O)C(=CNCCN2CCN(C(=S)Nc3ccccc3)CC2)C(=O)N(C)C1=O [CBK262858] | 97.5% |
